Reference: paper PMC4122966, “Novel VCP modulators mitigate major pathologies of rd10, a mouse model of retinitis pigmentosa” (Scientific Reports, 2014)
Values joined by “and” are separate entries in the source; they are usually repeats but may differ in a detail not shown here. Equal values may be shown once.

Tests used:
[1] = system: essentially all tested cultured cells; assay: cellular toxicity on cultured cells; format: cell-based; details: up to 50 μM
cellular VCP functions = assay: immunoblot of ubiquitinated proteins, CHOP (ER stress) and LC3 (autophagy) in cultured cells; format: cell-based
Description: (§1) Figure 1 Structures and characterization of KUSs, novel VCP modulators. (a) Structures and IC50 values of KUS11, KUS31, KUS69, KUS94, KUS121, and KUS187. […] (b) ATPase activity assays of recombinant human […], comparing KUSs and DBeQ. (c) Immunoblot analysis of ubiquitinated proteins, an ER stress marker (CHOP), and an autophagy indicator (LC3), comparing KUSs and DBeQ. As a control, MG132, a proteasome inhibitor, was used for the analysis. Actin served as a loading control. Complete scans of the different blots are presented in Supplementary Fig. 7. (d) Comparison of KUSs and DBeQ for cell death-inducing activities. HeLa cells were treated with 50 μM DBeQ or KUSs for 24 hours. […]

HeLa cells [2] = assay: cell death-inducing activity; format: cell-based; details: 50 μM, 24 hours
Description: as §1

recombinant VCP = recombinant VCP (Homo sapiens, UniProt P55072); assay: ATPase activity of recombinant VCP in vitro (modified molybdate assay, [γ-32P]ATP); format: biochemical
recombinant VCP, sequence (P55072 whole entry, species assumed): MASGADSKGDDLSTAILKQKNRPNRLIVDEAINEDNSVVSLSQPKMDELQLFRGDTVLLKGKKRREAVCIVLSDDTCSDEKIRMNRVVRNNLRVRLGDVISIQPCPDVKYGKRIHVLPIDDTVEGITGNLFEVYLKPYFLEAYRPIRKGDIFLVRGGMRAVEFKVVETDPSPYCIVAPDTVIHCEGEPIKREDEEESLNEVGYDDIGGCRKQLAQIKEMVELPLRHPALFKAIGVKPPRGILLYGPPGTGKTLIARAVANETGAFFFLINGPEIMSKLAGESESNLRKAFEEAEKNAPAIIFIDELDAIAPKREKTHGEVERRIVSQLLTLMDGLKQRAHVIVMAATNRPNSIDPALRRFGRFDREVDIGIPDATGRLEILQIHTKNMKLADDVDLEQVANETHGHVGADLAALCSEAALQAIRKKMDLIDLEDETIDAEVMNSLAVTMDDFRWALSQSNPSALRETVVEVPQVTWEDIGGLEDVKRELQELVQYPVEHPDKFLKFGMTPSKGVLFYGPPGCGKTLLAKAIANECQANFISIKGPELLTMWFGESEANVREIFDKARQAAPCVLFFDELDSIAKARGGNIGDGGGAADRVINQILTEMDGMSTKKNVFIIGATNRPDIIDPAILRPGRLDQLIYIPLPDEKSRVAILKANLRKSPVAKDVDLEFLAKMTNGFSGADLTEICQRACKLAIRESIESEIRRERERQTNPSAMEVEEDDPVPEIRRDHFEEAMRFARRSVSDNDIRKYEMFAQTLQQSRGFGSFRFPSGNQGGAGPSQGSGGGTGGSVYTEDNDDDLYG
Description: (§2) We measured ATPase activities by modifying the molybdate assay, which was as described previously. In the assay, 1 μg of whole cell soluble lysate of neuronally differentiated PC12 cells, or 500 ng recombinant VCP protein, was incubated in 20 μl of the ATPase assay buffer (20 mM HEPES (pH 7.4), 50 mM KCl, 5 mM MgCl2) with 100 μM [γ-^32P]ATP (18.5 GBq/mmol) (PerkinElmer) at 37°C for 20 min. After incubation, the reaction was quenched by addition of 200 μl of 8% ice-cold trichloroacetic acid solution with 1 mM K2HPO4, and then 50 μl of solution A (3.75% ammonium molybdate, 0.02 M silicotungstic acid in 3 N H2SO4) and 300 μl of n-butyl acetate were added to the reaction. The samples were mixed well and centrifuged at 12,000 × g for 1 min. Then, 200 μl aliquots from the upper organic phases were taken and their radioactivity was determined with a liquid scintillation counter for β-radiation, which determined the amounts of ^32P released.

HeLa cells [3] = assay: immunocytochemistry of laminin γ1 aggregation in tunicamycin-treated cells; format: cell-based; details: HeLa, Tm 0.5 μg/ml, 5 hours
Description: (§3) Figure 4 KUSs and ATP each prevented a decrease of ATP levels and ameliorated ER stress in tunicamycin-treated cells. (a) Immunocytochemical analyses of HeLa cells by an anti-laminin γ1 antibody. HeLa cells were treated with 0.5 μg/ml of tunicamycin (Tm) for 5 hours in the presence of KUSs (50 μM), ATP (0.1, 0.3, and 1 mM), methylpyruvate (MePyr) (3 and 10 mM), or vehicle alone (DMSO). Then, cells were fixed and subjected to immunocytochemical analyses. Normally growing HeLa cells were also analyzed (Control). Scale bar, 10 μm. (b) Measurements of the relative amounts of ATP per cell. HeLa cells were treated with tunicamycin (Tm, 0.5 μg/ml) for 24 hours in the presence of KUSs (50 μM) or ATP (0.1 and 1 mM), or vehicle alone (DMSO), and were harvested. Then, ATP amounts from 1.5 × 10^5 cells were measured. * P < 0.05, ** P < 0.01. Error bars indicate SD. (c) Western blot analyses on CHOP. HeLa cells were treated with 0.5 μg/ml of tunicamycin for 5 hours in the presence of KUSs (50 μM), ATP (0.1, 0.3, and 1 mM), methylpyruvate (MePyr) (3 and 10 mM), or vehicle alone (-). Then, cells were harvested and subjected to western blot analyses. Actin served as a loading control. Complete scans of the different blots are presented in Supplementary Fig. 9.

[4] = system: whole cell soluble lysate of neuronally differentiated PC12 cells; assay: total ATPase activity in clarified whole cell lysates; format: biochemical
Description: Figure 3 Effects of KUSs on ATPase activities, ATP levels, and acetyl-CoA levels. (a) Inhibition of ATPase activity in clarified whole cell lysates by KUS121, KUS187, and KUS94, but not KUS11. Total ATPase activities in clarified whole cell lysates from differentiated PC12 cells were measured in the absence and presence of KUSs. Relative ATPase activities are shown with values in the absence of KUS (D: DMSO) set at 100%. (b) HeLa cells were cultured in medium with low glucose (0.25 g/l) for 20 hours, with or without KUSs, and ATP levels were measured with luciferase assays. (c) HeLa cells were cultured in medium with low glucose (0.25 g/l) for 20 hours, with or without KUSs, and acetyl-CoA levels were measured. * P < 0.05, ** P < 0.01, *** P < 0.001 vs. DMSO control (Dunnett's test, n = 3).
as §2

rd10 mice = assay: rd10 mouse model of retinitis pigmentosa (SD-OCT, electroretinogram, histology, electron microscopy, western blot); format: in vivo; details: 21-day-old
Description: Starting 7 days after birth, KUS121 or KUS187 was administered daily (50 mg/kg) by intraperitoneal injection. […] To test the visual function of the mice, dark-adapted electroretinograms were recorded. The amplitude of the a-wave, which represents visual function of photoreceptors, was smaller in the control mice than in the KUS-treated mice (Supplementary Fig. 5b and c). The peak latency of the a-wave, which negatively correlates with visual function of photoreceptors, was delayed in the control mice as compared with the KUS-treated mice (Supplementary Fig. 5d). At age 25 days, the thinning of the outer nuclear layer (ONL) was clearly observed in the control mice (Fig. 5a). The outer nuclear layer and the junction line between the inner segment and outer segment (arrow heads in Fig. 5a), which is generally considered to be positively associated with visual function, were clearly detected in the KUS-treated but not in control mice. […] At age 29 days, the photoreceptor layer was barely detected in SD-OCT images, and electroretinogram records were almost flat in control mice. […]
Spectral-domain optical coherence tomography (SD-OCT) examinations using Multiline OCT (Heidelberg Engineering, Heidelberg, Germany) were performed[33] in rd10 mice at ages of 21, 25, 29, and 33days. Total retinal thickness (from inner limiting membrane to Bruch membrane) in rd10 mice was measured using volume scan images[33] within a circle 0.366 mm in diameter, the center of which was adjusted to the center of the optic nerve head. […]
Electroretinogram recording was performed to assess the visual function of rd10 mice at ages of 21, 25, 29, and 33 days. […] Electroretinograms were recorded using a gold loop corneal electrode with a light-emitting diode (Mayo Corp., Inazawa, Japan). […] The electroretinogram response signals were amplified, digitized at 10 kHz with a band-pass filter of 0.3 to 500 Hz, and analyzed (PowerLab 2/25; AD instruments, New South Wales, Australia). […]

[5] = system: tunicamycin-treated HeLa cells; assay: western blot of ER stress markers and phospho-Akt in tunicamycin-treated cells; format: cell-based; details: Tm 0.5 μg/ml, 5 hours, 3 to 10 mM methylpyruvate
Description: Figure 2 Prevention of cell death and ER stress by KUSs. (a) Photographs of HeLa cells, cultured with DMSO (DMSO) or KUSs (KUS94, KUS121, and KUS187, 20 μM each) for 41 hours in low glucose (0.2 g/l) medium. Scale bar, 100 μm. (b–e) WST (water-soluble tetrazolium salts) values reflecting relative live cell numbers are shown, as optical density (OD) at 450 nm. Error bars indicate SD. (b) WST values of HeLa cells, cultured in low glucose (0.2 g/l) with DMSO (control) or KUSs (50 μM for KUS121; 20 μM for KUS69, KUS94, and KUS187, n = 3) for 41 hours. (c) Cell viability, indicated by WST values of HeLa cells, cultured with tunicamycin (Tm) (0.2 μg/ml) for 41 hours with KUSs (20 μM each, n = 3). (d) WST values of HEK293 cells, cultured under serum-free conditions for 65 hours with DMSO (control) or KUSs (20 μM each, n = 3). *** P < 0.001, vs. DMSO control (Dunnett's test). (e) WST values of HeLa cells, cultured in low glucose (0.2 g/l) medium with different concentrations of KUS121 (5, 10, 20, and 50 μM, n = 3) for 41 hours. ** P = 0.008, *** P < 0.001, vs. DMSO control (Dunnett's test). […]
Figure 4 KUSs and ATP each prevented a decrease of ATP levels and ameliorated ER stress in tunicamycin-treated cells. […] Normally growing HeLa cells were also analyzed (Control). […] Then, ATP amounts from 1.5 × 10^5 cells were measured. * P < 0.05, ** P < 0.01. […]

HeLa cells [6] = assay: relative ATP amounts per cell in tunicamycin-treated cells; format: cell-based; details: Tm 0.5 μg/ml, 24 hours, KUSs 50 μM
Description: as §3

Row | SMILES | apparent cellular toxicity [1] | induction of accumulation of ubiquitinated proteins, ER stress (CHOP), autophagy (LC3) (cellular VCP functions) | induction of cell death (HeLa cells [2]) | IC50 (recombinant VCP) | aggregation of laminin γ1 (HeLa cells [3]; 50 μM KUS) | lowering of total ATPase activity ([4]; 1 μM compound) | outer segment morphology by electron microscopy (rd10 mice) | mean amplitude of the a-wave, dark-adapted electroretinogram (rd10 mice; 50 mg/kg daily i.p. from day 7, vs control) | lowering of total ATPase activity ([4]; 100 nM compound) | induction of ER stress (CHOP induction) [5] | aggregation of laminin γ1 (HeLa cells [3]; 3 to 10 mM methylpyruvate) | inhibition of total ATPase activity in clarified lysates [4] | decrease of ATP levels in tunicamycin-treated cells (HeLa cells [6])
1 | Nc1c(/N=N/c2ccc(-c3ccccc3-c3ccccc3)nc2)cc(S(=O)(=O)O)c2ccccc12 [KUS69] | did not manifest any apparent cellular toxicity | did not induce any of these phenotypes | did not induce any of these phenotypes | 0.116 µM | clearly prevented the aggregation of laminin γ1 |  |  |  |  |  |  |  | 
2 | Nc1c(/N=N/c2ccc(-c3cccc4c3sc3ccccc34)nc2)cc(S(=O)(=O)O)c2ccccc12 [KUS94] | did not manifest any apparent cellular toxicity | did not induce any of these phenotypes | did not induce any of these phenotypes | 1 µM | clearly prevented the aggregation of laminin γ1 | approximately 20% |  |  |  |  |  |  | 
3 | Nc1c(/N=N/c2ccc(-c3ccccc3)nc2)cc(S(=O)(=O)O)c2ccccc12 [KUS31] | did not manifest any apparent cellular toxicity | did not induce any of these phenotypes | did not induce any of these phenotypes | 0.229 µM |  |  |  |  |  |  |  |  | 
4 | CCCCOc1c(C=O)cc(C)cc1-c1ccc(/N=N/c2cc(S(=O)(=O)O)c3ccccc3c2N)cn1 [KUS187] | did not manifest any apparent cellular toxicity | did not induce any of these phenotypes | did not induce any of these phenotypes | 0.2 to 0.3 µM and 0.186 µM | clearly prevented the aggregation of laminin γ1 | ~40% | well preserved | larger than that in control rd10 mice | approximately 20% |  |  |  | 
5 | COC(=O)C(C)=O [methylpyruvate] |  |  |  |  |  |  |  |  |  | dampen the induction of ER stress | ineffective in preventing the aggregation of laminin γ1 |  | 
6 | Nc1ccc2cc(S(=O)(=O)O)ccc2c1/N=N/c1ccccc1 [KUS11] |  |  |  | > 100 µM |  |  |  |  |  |  |  | did not show any significant inhibition | unable to prevent the tunicamycin-elicited ATP decrease
